# Measured values as given in patent US20020002124A1, “Antimicrobial cleansing compositions” (priority 2000, published 2002).
# Experiment: Mildness to the skin (drying, stinging) on topical use
# Format: in vivo
# Conditions: as proton donating agent in the compositions
compound,measurement,value
O=C1CCC(C(=O)O)N1 (stereo not shown) [2-pyrrolidone-5 carboxylic acid],mildness to the skin and stinging compared with other acids suitable for topical application,milder to the skin and causes less stinging than many other acids
